Reference: patent US20260308186A1, “STAT DEGRADERS AND USES THEREOF” (Recludix Pharma, Inc., priority 2023, published 2026)

Columns and labels:
pSTAT3 = biological target: T1, pSTAT3 (Homo sapiens, UniProt P40763); experiment: MSD-pSTAT-PBMC Assay, pSTAT3 (IL-6 stimulated PBMC); assay type: cell-based; conditions: read-out: pSTAT3 IC50, compound 3 hrs, then 10 ng/mL IL-6 for 10 min, pY705-STAT3
T1 construct: pY705-STAT3 MSD read-out
Excerpt: Cryopreserved Peripheral Blood Mononuclear Cells (PBMC) are from AllCells. Recombinant Human IL-4 and IL-6 are from Peprotech. Mouse monoclonal anti-STAT3 antibody, rabbit monoclonal anti-pY705-STAT3 antibody, rabbit monoclonal Anti-pY641-STAT6 antibody, and lysis buffer are from Cell Signaling Technology (CST). Mouse monoclonal anti-STAT6 antibody is from BioLegend. Assay plates, blocker, and anti-rabbit secondary antibody are from Meso Scale Discovery (MSD).
Cryopreserved PBMCs were thawed out and allowed to recover overnight in IMDM+10% heat-inactivated FBS prior to plating 50,000 (STAT3) or 25,000 (STAT6) cells per well in 96-well U-bottom tissue culture plates. Cells were treated with compound for 3 hrs. then stimulated with 10 ng/mL IL-6 (STAT3) or 1 ng/mL IL-4 (STAT6) for 10 min. Cells were then spun down and washed with ice-cold PBS prior to lysing the cell pellet with 1× lysis buffer (CST) with 1×HALT protease and phosphatase inhibitor cocktail (Thermo). Lysates were transferred to and incubated overnight at 4° C. with shaking in QuickPlex 96-well high bind assay plates (MSD) pre-coated overnight with 30 μL per well of 0.6 μg/mL mouse monoclonal anti-STAT3 antibody (STAT3) or 2 μg/mL mouse monoclonal anti-STAT6 antibody (STAT6) in 1×PBS, and pre-blocked for 1 hour with 3% Blocker-A (MSD). Captured protein in the assay plates were then washed and probed with 25 μL per well of 0.25 μg/ml rabbit monoclonal anti-pY705-STAT3 antibody (STAT3) or 0.18 μg/ml rabbit monoclonal Anti-pY641-STAT6 antibody (STAT6) in 1% Blocker-A for 1 hour at room temperature with shaking, then washed and probed with 25 ul per well of 1 ug/ml Sulfo-TAG Labeled Goat Anti-Rabbit Antibody (MSD) in 1% Blocker-A for 1 hour at room temperature with shaking. Assay plates were then washed and 150 μL of 1× Read Buffer-T (MSD) was added to each well prior to reading on an SQ120 MSD Plate Reader. Assay signal from each sample was subtracted by the signal from unstimulated control wells and normalized to DMSO control wells. IC50 values were calculated using Graph Pad Prism Dose-Response Nonlinear Regression with variable slope. For both pSTAT3 and pSTAT6 A=≤100 nM; B=>100-1000 nM; C=>1000-3000 nM; and D=>3 μM.

pSTAT6 = biological target: T2, pSTAT6 (Homo sapiens, UniProt P42226); experiment: MSD-pSTAT-PBMC Assay, pSTAT6 (IL-4 stimulated PBMC); assay type: cell-based; conditions: read-out: pSTAT6 IC50, compound 3 hrs, then 1 ng/mL IL-4 for 10 min, pY641-STAT6
T2 construct: pY641-STAT6 MSD read-out
T2 sequence (P42226 1-847): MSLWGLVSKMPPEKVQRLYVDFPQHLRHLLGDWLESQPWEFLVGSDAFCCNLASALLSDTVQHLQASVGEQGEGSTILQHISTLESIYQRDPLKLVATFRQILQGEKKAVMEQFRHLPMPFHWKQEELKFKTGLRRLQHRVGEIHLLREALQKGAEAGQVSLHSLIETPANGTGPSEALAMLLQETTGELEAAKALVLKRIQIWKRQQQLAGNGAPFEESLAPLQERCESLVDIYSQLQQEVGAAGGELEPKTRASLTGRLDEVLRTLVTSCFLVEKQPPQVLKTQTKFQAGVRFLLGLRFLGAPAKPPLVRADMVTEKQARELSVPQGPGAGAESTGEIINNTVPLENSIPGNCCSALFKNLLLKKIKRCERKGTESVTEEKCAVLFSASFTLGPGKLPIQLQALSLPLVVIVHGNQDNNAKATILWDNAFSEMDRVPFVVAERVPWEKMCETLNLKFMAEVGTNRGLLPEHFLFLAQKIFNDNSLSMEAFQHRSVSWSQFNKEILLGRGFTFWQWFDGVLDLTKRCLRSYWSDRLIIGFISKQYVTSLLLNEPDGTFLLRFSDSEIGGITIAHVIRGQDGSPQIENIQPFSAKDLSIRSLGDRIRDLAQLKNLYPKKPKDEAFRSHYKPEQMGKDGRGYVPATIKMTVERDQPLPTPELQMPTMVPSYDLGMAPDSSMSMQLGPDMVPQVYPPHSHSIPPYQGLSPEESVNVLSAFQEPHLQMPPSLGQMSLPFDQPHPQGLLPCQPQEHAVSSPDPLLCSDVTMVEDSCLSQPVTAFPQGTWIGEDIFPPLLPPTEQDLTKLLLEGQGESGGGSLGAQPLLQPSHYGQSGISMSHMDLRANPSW
Method in brief: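 Human PBMC were recovered overnight, treated 3 h with compound, then stimulated for 10 min with 10 ng/mL IL-6 (pSTAT3) or 1 ng/mL IL-4 (pSTAT6). Lysates were read by MSD sandwich immunoassay, with total STAT capture and pY705-STAT3 or pY641-STAT6 detection. Signal minus unstimulated wells was normalized to DMSO, and IC50 came from a variable-slope fit.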

T1 sequence (P40763 whole entry): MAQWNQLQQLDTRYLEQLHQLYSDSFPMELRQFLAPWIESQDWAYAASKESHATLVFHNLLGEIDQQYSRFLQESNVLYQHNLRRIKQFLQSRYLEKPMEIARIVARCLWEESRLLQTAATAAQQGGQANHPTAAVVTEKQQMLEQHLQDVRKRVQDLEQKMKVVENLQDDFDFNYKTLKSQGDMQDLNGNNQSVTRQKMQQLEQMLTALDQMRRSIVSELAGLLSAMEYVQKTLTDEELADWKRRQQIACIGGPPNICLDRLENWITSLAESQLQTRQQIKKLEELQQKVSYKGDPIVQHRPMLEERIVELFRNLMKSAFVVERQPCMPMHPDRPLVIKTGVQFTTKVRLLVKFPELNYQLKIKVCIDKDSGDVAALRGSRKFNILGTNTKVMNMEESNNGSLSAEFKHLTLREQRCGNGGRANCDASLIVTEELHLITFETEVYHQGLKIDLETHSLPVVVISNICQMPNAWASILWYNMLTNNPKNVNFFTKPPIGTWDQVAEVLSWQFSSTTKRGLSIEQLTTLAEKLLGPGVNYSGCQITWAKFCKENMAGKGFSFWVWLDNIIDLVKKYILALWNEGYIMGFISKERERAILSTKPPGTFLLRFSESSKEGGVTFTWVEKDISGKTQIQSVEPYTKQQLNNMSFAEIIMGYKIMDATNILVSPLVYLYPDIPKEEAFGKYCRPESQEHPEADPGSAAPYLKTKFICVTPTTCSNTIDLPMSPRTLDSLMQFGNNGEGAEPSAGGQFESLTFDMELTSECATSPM

| SMILES | IC50 (pSTAT3) [µM] | IC50 (pSTAT6) [µM] |
| --- | --- | --- |
| CCCC(=O)SCCOP(=O)(OCCSC(=O)CCC)C(F)(F)c1ccc2ccc(C(=O)N[C@H]3CN(C(=O)c4n[nH]c5ccc(C)cc45)CC[C@H]4CC[C@@H](C(=O)NCCCCCCCCC(=O)N[C@H](C(=O)N5C[C@H](O)C[C@H]5C(=O)N[C@@H](C)c5ccc(-c6scnc6C)cc5)C(C)(C)C)N4C3=O)cc2c1 [Compound 8, S,S′-((((difluoro(7-(((5S,8S,10aR)-8-((9-(((S)-1-((2S,4R)-4-hydroxy-2-(((S)-1-(4-(4-methylthiazol-5-yl)phenyl)ethyl)carbamoyl)pyrrolidin-1-yl)-3,3-dimethyl-1-oxobutan-2-yl)amino)-9-oxononyl)carbamoyl)-3-(5-methyl-1H-indazole-3-carbonyl)-6-oxodecahydropyrrolo[1,2-a][1,5]diazocin-5-yl)carbamoyl)naphthalen-2-yl)methyl)phosphoryl)bis(oxy))bis(ethane-2,1-diyl)) dibutanethioate] | > 3 | 1 to 3 |
| CCCC(=O)SCCOP(=O)(OCCSC(=O)CCC)C(F)(F)c1ccc2ccc(C(=O)N[C@H]3CN(C(=O)c4n[nH]c5ccc(C)cc45)CC[C@H]4CC[C@@H](C(=O)NCCCCCCC#Cc5cccc6c5CN(C5CCC(=O)NC5=O)C6=O)N4C3=O)cc2c1 (stereo partly drawn) [Compound 10, S,S′-(((((7-(((5S,8S,10aR)-8-((8-(2-(2,6-dioxopiperidin-3-yl)-1-oxoisoindolin-4-yl)oct-7-yn-1-yl)carbamoyl)-3-(5-methyl-1H-indazole-3-carbonyl)-6-oxodecahydropyrrolo[1,2-a][1,5]diazocin-5-yl)carbamoyl)naphthalen-2-yl)difluoromethyl)phosphoryl)bis(oxy))bis(ethane-2,1-diyl)) dibutanethioate] | > 3 | < 0.1 |
| CCCC(=O)SCCOP(=O)(OCCSC(=O)CCC)C(F)(F)c1ccc2ccc(C(=O)N[C@H]3CN(C(=O)c4n[nH]c5ccc(C)cc45)CC[C@H]4CC[C@@H](C(=O)N(C)CCCCCCC#Cc5cccc6c5CN(C5CCC(=O)NC5=O)C6=O)N4C3=O)cc2c1 (stereo partly drawn) [Compound 12, S,S′-(((((7-(((5S,8S,10aR)-8-((8-(2-(2,6-dioxopiperidin-3-yl)-1-oxoisoindolin-4-yl)oct-7-yn-1-yl)(methyl)carbamoyl)-3-(5-methyl-1H-indazole-3-carbonyl)-6-oxodecahydropyrrolo[1,2-a][1,5]diazocin-5-yl)carbamoyl)naphthalen-2-yl)difluoromethyl)phosphoryl)bis(oxy))bis(ethane-2,1-diyl)) dibutanethioate] | > 3 | < 0.1 |
| CCCOC(=O)[C@H](C)NP(=O)(Oc1ccccc1)C(F)c1ccc2ccc(C(=O)N[C@H]3CN(C(=O)c4n[nH]c5ccc(C)cc45)CC[C@H]4CC[C@@H](C(=O)N(C)CCCCCCC#Cc5cccc6c5CN(C5CCC(=O)NC5=O)C6=O)N4C3=O)cc2c1 (stereo partly drawn) [Compound 13, propyl (((7-(((5S,8S,10aR)-8-((8-(2-(2,6-dioxopiperidin-3-yl)-1-oxoisoindolin-4-yl)oct-7-yn-1-yl)(methyl)carbamoyl)-3-(5-methyl-1H-indazole-3-carbonyl)-6-oxodecahydropyrrolo[1,2-a][1,5]diazocin-5-yl)carbamoyl)naphthalen-2-yl)fluoromethyl)(phenoxy)phosphoryl)-L-alaninate] | > 3 | > 3 |
